Format in all cases: physicochemical
The nature of data set [1]: Critical micelle concentration (CMC) from surface tension versus concentration, Wilhelmy plate method. The note with it: for surface tension at the CMC: from plot of surface tension versus concentration; for surface tension at the CMC / minimum surface tension that can be reached (plateau / asymptotic value): pH=7; for minimum surface tension that can be reached (plateau / asymptotic value) / critical micelle concentration (CMC): in water. From the text: As surfactant concentration increases, surface tension decreases. Once the surface is completely overlaid with surfactant molecules, micelles begin to form. This point represents the CMC, as well as the minimum surface tension. Further addition of surfactant will not further affect the surface tension. CMC may therefore be measured by observing the change in surface tension as a function of surfactant concentration. One such method for measuring this value is the Wilhemy plate method. A Wilhelmy plate is usually a thin iridium-platinum plate attached to a balance by a wire and placed perpendicularly to the air-liquid interface. The balance is used to measure the force exerted on the plate by wetting. This value is then used to calculate the surface tension (γ) according to Equation 1: γ=F/I cos θ Equation 1: wherein I is equal to the wetted perimeter (2w+2d, in which w and d are the […], respectively) and cos θ, the contact angle between the liquid and the plate, is assumed to be 0 in the absence of an extant literature value.
(§1) Nuclear magnetic resonance (NMR) spectroscopy was performed on a Bruker 500 MHz spectrometer. The critical micelle concentration (CMC) was determined by the Wilhelmy plate method at 23° C. with a tensiometer (DCAT 11, DataPhysics Instruments GmbH) equipped with a Pt—Ir plate. Dynamic surface tension was determined with a bubble pressure tensiometer (Krüss BP100, Krüss GmbH), at 23° C. Contact angle was determined with the optical contact angle goniometer (OCA 15 Pro, DataPhysics GmbH) equipped with a digital camera.
The critical micelle concentration (CMC) of the 6-((2-butyloctyl)oxy)-N,N,N-trimethyl-6-oxohexan-1-aminium iodide from Example 1a was tested. […] From the plot of the results, the surface tension at the CMC is equal to or less than about 27 mN/m.
The critical micelle concentration (CMC) of the 6-((2-butyloctyl)oxy)-N,N-dimethyl-6-oxohexan-1-aminium 4-methylbenzenesulfonate from Example 2a was tested. From the change in surface tension with concentration in water, the CMC was determined to be about 0.97 mmol. The plateau value of minimum surface tension that can be reached by this surfactant is about 27 mN/m, namely 27 mN/m±3 mN/m. […] From the plot of the results, the surface tension at the CMC is equal to or less than about 30 mN/m.

A short description of data set [2]: Dynamic surface tension, bubble pressure tensiometer. The note with it: 23° C. As to the method:
One method by which dynamic surface tension is measured relies upon a bubble pressure tensiometer. This device measures the maximum internal pressure of a gas bubble that is formed in a liquid by means of a capillary. The measured value corresponds to the surface tension at a certain surface age, the time from the start of the bubble formation to the occurrence of the pressure maximum. The dependence of surface tension on surface age can be measured by varying the speed at which bubbles are produced.
as §1
The dynamic surface tension of the 6-((2-butyloctyl)oxy)-N,N-dimethyl-6-oxohexan-1-aminium 4-methylbenzenesulfonate from Example 2a was determined with a bubble pressure tensiometer which measures the change of surface tension of a freshly created air-water interface with time. FIG. 2B presents a plot of the surface tension versus time, showing that surface tension in the time interval between 10 and 100 ms drops rapidly from about 46 mN/m to about 30 mN/m. In the time interval from 100 to 8,000 ms, the surface tension drops slowly from 30 mN/m to about 27 mN/m, approaching asymptotically the saturation value of the surface tension at the CMC.

Data set [3] can be described thus: Wetting properties: contact angle on solid substrates, optical contact angle goniometer. The note with it: 10x CMC.
Excerpt: Surface-active compounds may also be assessed by their wetting ability on solid substrates as measured by the contact angle. When a liquid droplet comes in contact with a solid surface in a third medium, such as air, a three-phase line forms among the liquid, the gas and the solid. The angle between the surface tension unit vector, acting at the three-phase line and tangent at the liquid droplet, and the surface is described as the contact angle. The contact angle (also known as wetting angle) is a measure of the wettability of a solid by a liquid. In the case of complete wetting, the liquid is completely spread over the solid and the contact angle is 0°. Wetting properties are typically measured for a given compound at the concentration of 1-10×CMC, however, it is not a property that is concentration-dependent therefore measurements of wetting properties can be measured at concentrations that are higher or lower.
In one method, an optical contact angle goniometer may be used to measure the contact angle. This device uses a digital camera and software to extract the contact angle by analyze the contour shape of a sessile droplet of liquid on a surface.
as §1
In addition to surface tension and surface dynamics, the wetting properties of the 6-((2-butyloctyl)oxy)-N,N-dimethyl-6-oxohexan-1-aminium 4-methylbenzenesulfonate from Example 2a were tested on various surfaces.

The mark [4] stands for this setting: substrate Polyethylene terephthalate.

Values joined by “and” are separate entries in the source; they are usually repeats but may differ in a detail not shown here. Equal entries are not always repeated.

As for `CCCCCCC(CCCC)COC(=O)CCCCC[N+](C)(C)C.[I-]` (stereo not shown) [Example 1a, 6-((2-butyloctyl)oxy)-N,N,N-trimethyl-6-oxohexan-1-aminium iodide], the “critical micelle concentration (CMC), not clearly determined up to this concentration” value in data set [1] (23° C., pH=7, Wilhelmy plate) is given as over 10 mg/mL. Besides, the surface tension (as a rule, the force per length acting along the surface) at the CMC in data set [1] is recorded as at most 27 mN/m. Besides, the “minimum surface tension that can be reached (plateau / asymptotic value)” value in data set [1] (23° C.) is given as “about 27 mN/m”.

On to `CCCCCCC(CCCC)COC(=O)CCCCCN(C)C.Cc1ccc(S(=O)(=O)O)cc1` (stereo not shown) [Example 2a, 6-((2-butyloctyl)oxy)-N,N-dimethyl-6-oxohexan-1-aminium 4-methylbenzenesulfonate], for which, in data set [1], the “surface tension at the CMC” value is at most 30 mN/m. Besides, the “minimum surface tension that can be reached (plateau / asymptotic value)” value in data set [1] (23° C.) is recorded as “about 27 mN/m”. Also, in data set [1] (23° C., pH=7, Wilhelmy plate), the “critical micelle concentration (CMC)” value is on record as “about 0.97 mmol”. In addition, the dynamic surface tension entry in data set [2] (surface age 10 ms) is recorded as “about 46 mN/m”; in data set [2] (surface age 100 ms), “about 30 mN/m”; in data set [2] (surface age 8,000 ms) it was “about 27 mN/m”. Also, the “CA of Surfactant (contact angle)” value in data set [3] (substrate Nylon) was found to be 13.5 °; in data set [3] (setting [4]), 7.7 °; in data set [3] (substrate Polyethylene-HD), 24.3 °; in data set [3] (substrate Teflon), 48.2 °.

On to `CCCCCCC(CCCC)COC(=O)CCCCCN(C)C.Cl` (stereo not shown) [Example 3a, 6-((2-butyloctyl)oxy)-N,N-dimethyl-6-oxohexan-1-aminium chloride], for which the “minimum surface tension that can be reached (plateau / asymptotic value)” value in data set [1] (23° C.) is recorded as “about 29 mN/m”.

For `CCCCCCC(CCCC)COC(=O)CCCCC[N+](C)(C)CCCCS(=O)(=O)[O-]` (stereo not shown) [Example 4a, 4-((6-((2-butyloctyl)oxy)-6-oxohexyl)dimethylammonio)butane-1-sulfonate], the “surface tension at the CMC” value in data set [1] is at most 32 mN/m. Further, the “minimum surface tension that can be reached (plateau / asymptotic value)” value in data set [1] (23° C.) is recorded as “about 32 mN/m”. In data set [1] (23° C., pH=7, Wilhelmy plate), the “critical micelle concentration (CMC)” value is on record as “about 0.54 mmol”. Also, the dynamic surface tension entry is on record as “about 66 mN/m” in data set [2] (surface age 10 ms), “about 36 mN/m” in data set [2] (surface age 100 ms) and “about 32 mN/m” in data set [2] (surface age 8,000 ms). Moreover, the “CA of Surfactant (contact angle)” value was found to be 28.7 ° in data set [3] (substrate Nylon), 29.8 ° in data set [3] (setting [4]), 44.4 ° in data set [3] (substrate Polyethylene-HD) and 62.2 ° in data set [3] (substrate Teflon).

`CCCCCCC(CCCC)COC(=O)CCCCC[N+](C)(C)[O-]` (stereo not shown) [Example 5a, 2-butyloctyl 6-(dimethylamino)hexanoate N-oxide]: the “surface tension at the CMC” value in data set [1] is reported as at most 28 mN/m. Further, the “minimum surface tension that can be reached (plateau / asymptotic value)” value in data set [1] (23° C.) is given as “about 28 mN/m”. Also, the “critical micelle concentration (CMC)” value in data set [1] (23° C., pH=7, Wilhelmy plate) is listed as “about 0.29 mmol”. The dynamic surface tension result in data set [2] (surface age 10 ms) is reported as “about 60 mN/m”; in data set [2] (surface age 1,000 ms) it was “about 30 mN/m”; in data set [2] (surface age 8,000 ms) it was “about 28 mN/m”. The “CA of Surfactant (contact angle)” value was 38.5 ° in data set [3] (substrate Nylon); 9.2 ° in data set [3] (setting [4]); 31.6 ° and 31.9 ° in data set [3] (substrate Polyethylene-HD); 41.5 ° and 41.0 ° in data set [3] (substrate Teflon).

Turning to `CCCCCCC(CCCC)COC(=O)CCCCCN.Cl` (stereo not shown) [Example 6a, 6-((2-butyloctyl)oxy)-6-oxohexan-1-aminium chloride], in data set [1], the “surface tension at the CMC” value is on record as at most 30 mN/m. Besides, in data set [1] (23° C.), the “minimum surface tension that can be reached (plateau / asymptotic value)” value is given as “about 27 mN/m”. Also, the “critical micelle concentration (CMC)” value in data set [1] (23° C., pH=7, Wilhelmy plate) is “about 0.15 mmol”. Further, the results for the dynamic surface tension result in data set [2] (surface age 10 ms), in data set [2] (surface age 1,000 ms) and in data set [2] (surface age 8,000 ms) were “about 69 mN/m”, “about 49 mN/m” and “about 29 mN/m”, respectively. For the same compound, the “CA of Surfactant (contact angle)” value in data set [3] (substrate Nylon) was 24.5 °; in data set [3] (setting [4]), 20.1 °; in data set [3] (substrate Polyethylene-HD), 25.8 °; in data set [3] (substrate Teflon), 48.7 °.

The compound `CCCCCCC(CCCC)COC(=O)CCCCCN.Cc1ccc(S(=O)(=O)O)cc1` (stereo not shown) [Example 7a, 6-((2-butyloctyl)oxy)-6-oxohexan-1-aminium 4-methylbenzenesulfonate] showed a surface tension in data set [1] (at a concentration of about 1.0 mmol or greater) of at most 28.5 mN/m. Moreover, in data set [1], the “surface tension at the CMC” value was at most 30 mN/m. In addition, the “minimum surface tension that can be reached (plateau / asymptotic value)” value in data set [1] (23° C.) is reported as “about 27 mN/m”. For the same compound, in data set [1] (23° C., pH=7, Wilhelmy plate), the “critical micelle concentration (CMC)” value is on record as “about 2.12 mmol”. The dynamic surface tension result was “about 46 mN/m” in data set [2] (surface age 10 ms), “about 30 mN/m” in data set [2] (surface age 100 ms) and “about 27 mN/m” in data set [2] (surface age 8,000 ms). The “CA of Surfactant (contact angle)” value was determined as 12.6 ° in data set [3] (substrate Nylon), 13.2 ° in data set [3] (setting [4]), 14.6 ° in data set [3] (substrate Polyethylene-HD) and 49.4 ° in data set [3] (substrate Teflon).
